Structures are written as SMILES. Starred links: 1 amine or outer side, 2 acyl side, 3 side chain; linkers in the order of their positions; H or OH if unused. Residues, ends and D or L forms follow the SMILES beside them. Groups on a side chain read outwards from the residue. *: point of attachment. Pyrrolidide = C1CCN(*)C1; CO = O=C([*:1])[*:2]; Ms = CS(=O)(=O)*

Integrin alpha-4/beta-1, sequence (P05556 whole entry, one chain of several): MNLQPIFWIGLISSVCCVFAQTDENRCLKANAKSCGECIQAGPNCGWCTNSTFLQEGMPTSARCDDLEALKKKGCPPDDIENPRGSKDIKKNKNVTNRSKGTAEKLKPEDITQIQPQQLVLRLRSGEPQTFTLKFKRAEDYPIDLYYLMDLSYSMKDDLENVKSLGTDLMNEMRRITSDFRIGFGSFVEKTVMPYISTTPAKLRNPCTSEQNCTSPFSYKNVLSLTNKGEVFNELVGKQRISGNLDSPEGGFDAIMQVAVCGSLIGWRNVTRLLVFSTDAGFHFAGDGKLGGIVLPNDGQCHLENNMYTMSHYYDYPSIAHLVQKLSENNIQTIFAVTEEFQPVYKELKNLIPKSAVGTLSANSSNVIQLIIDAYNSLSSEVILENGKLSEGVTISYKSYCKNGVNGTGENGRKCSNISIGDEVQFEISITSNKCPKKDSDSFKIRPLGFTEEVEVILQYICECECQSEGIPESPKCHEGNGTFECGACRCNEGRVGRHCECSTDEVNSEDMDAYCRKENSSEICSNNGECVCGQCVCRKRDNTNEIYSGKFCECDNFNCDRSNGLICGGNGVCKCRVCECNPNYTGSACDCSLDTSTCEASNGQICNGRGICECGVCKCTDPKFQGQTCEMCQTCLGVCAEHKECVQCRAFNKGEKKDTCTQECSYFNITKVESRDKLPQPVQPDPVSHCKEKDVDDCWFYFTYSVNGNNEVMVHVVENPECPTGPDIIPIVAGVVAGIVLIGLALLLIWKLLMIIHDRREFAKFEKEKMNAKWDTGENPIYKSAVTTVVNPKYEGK

One data set addresses Integrin alpha-4/beta-1 (Homo sapiens, UniProt P05556+P13612). Nature of the data set: Alpha4-beta1 integrin binding affinity was assessed by measuring the reduction in binding of [125I]VCAM-Ig to a suspension of Jurkat cells (a human T cell line alpha-4-beta-1-beta-7). Format: cell-based.
Details: not given
A word on the IC50: it is the midpoint of a concentration-inhibition curve. Low readings indicate greater potency in that assay, high ones weaker potency in that assay. In turn, `CC(C)(C)Oc1ccc(C[C@H](NC(=O)[C@@H]2CCCN2S(=O)(=O)c2cc(Cl)cc(Cl)c2)C(=O)O)cc1` returned an IC50 of 0.21 nM.

Consider `CC(C)N(C(=O)Oc1ccc(C[C@H](NC(=O)[C@]2(C)CCCN2S(=O)(=O)c2cc(Cl)cc(Cl)c2)C(=O)O)cc1)C(C)C`, for which the 50% inhibitory concentration (IC50) stood at 0.22 nM.

In turn, `C[C@@]1(C(=O)N[C@@H](Cc2cccc(OC(=O)N3CCCC3)c2)C(=O)O)CCCN1S(=O)(=O)c1cc(Cl)cc(Cl)c1` came in with an IC50 of 3.65 nM.

`O=C(O)[C@H](Cc1ccc(OCc2ccccc2)cc1)NC(=O)[C@@H]1CCCN1S(=O)(=O)c1cc(Cl)cc(Cl)c1` gave an IC50 of 1.94 nM.

`CCN(CC)C(=O)Oc1ccc(C[C@H](NC(=O)[C@]2(C)CCCN2S(=O)(=O)c2cc(Cl)cc(Cl)c2)C(=O)O)cc1`: the IC50 was determined as 0.19 nM.

In the case of `C[C@@]1(C(=O)N[C@@H](Cc2ccc(OC(=O)N3CCOCC3)cc2)C(=O)O)CCCN1S(=O)(=O)c1cc(Cl)cc(Cl)c1`, the IC50 is 0.13 nM.

The compound `CN(C(=O)Oc1ccc(C[C@H](NC(=O)[C@]2(C)CCCN2S(=O)(=O)c2cc(Cl)cc(Cl)c2)C(=O)O)cc1)c1ccccc1` came in with a 50% inhibitory concentration (IC50) of 0.25 nM.

For the compound `CC(C)(C)OC(=O)COc1ccc(C[C@H](NC(=O)[C@@H]2CCCN2S(=O)(=O)c2cc(Cl)cc(Cl)c2)C(=O)O)cc1`, the IC50 stood at 0.13 nM.

Regarding `N#CCOc1ccc(C[C@H](NC(=O)[C@@H]2CCCN2S(=O)(=O)c2cc(Cl)cc(Cl)c2)C(=O)O)cc1`, the IC50 worked out at 0.26 nM.

`O=C(O)[C@H](Cc1ccc(OC(=O)N2CCCC2)cc1)NC(=O)[C@@H]1CCCN1S(=O)(=O)c1cc(Cl)cc(Cl)c1` registered an IC50 of 0.13 nM.

`C[C@@]1(C(=O)N[C@@H](Cc2ccc(OC(=O)N3CCCC3)cc2)C(=O)O)CCCN1S(=O)(=O)c1cc(Cl)cc(Cl)c1` came in with an IC50 of 0.17 nM.

Compound `CC(=O)COc1ccc(C[C@H](NC(=O)[C@@H]2CCCN2S(=O)(=O)c2cc(Cl)cc(Cl)c2)C(=O)O)cc1` showed an IC50 of 0.18 nM.

`CS(=O)(=O)N1CCC[C@H]1C(=O)N[C@@H](Cc1ccc(OC(=O)N2CCCC2)cc1)C(=O)O` (Ms-Pro-Tyr([CO-Pyrrolidide])-OH): the IC50 was 0.5 nM.

A further data set deals with T1, Integrin alpha-4/beta-7 (Homo sapiens, UniProt P13612+P26010).
T1 sequence (P13612 whole entry): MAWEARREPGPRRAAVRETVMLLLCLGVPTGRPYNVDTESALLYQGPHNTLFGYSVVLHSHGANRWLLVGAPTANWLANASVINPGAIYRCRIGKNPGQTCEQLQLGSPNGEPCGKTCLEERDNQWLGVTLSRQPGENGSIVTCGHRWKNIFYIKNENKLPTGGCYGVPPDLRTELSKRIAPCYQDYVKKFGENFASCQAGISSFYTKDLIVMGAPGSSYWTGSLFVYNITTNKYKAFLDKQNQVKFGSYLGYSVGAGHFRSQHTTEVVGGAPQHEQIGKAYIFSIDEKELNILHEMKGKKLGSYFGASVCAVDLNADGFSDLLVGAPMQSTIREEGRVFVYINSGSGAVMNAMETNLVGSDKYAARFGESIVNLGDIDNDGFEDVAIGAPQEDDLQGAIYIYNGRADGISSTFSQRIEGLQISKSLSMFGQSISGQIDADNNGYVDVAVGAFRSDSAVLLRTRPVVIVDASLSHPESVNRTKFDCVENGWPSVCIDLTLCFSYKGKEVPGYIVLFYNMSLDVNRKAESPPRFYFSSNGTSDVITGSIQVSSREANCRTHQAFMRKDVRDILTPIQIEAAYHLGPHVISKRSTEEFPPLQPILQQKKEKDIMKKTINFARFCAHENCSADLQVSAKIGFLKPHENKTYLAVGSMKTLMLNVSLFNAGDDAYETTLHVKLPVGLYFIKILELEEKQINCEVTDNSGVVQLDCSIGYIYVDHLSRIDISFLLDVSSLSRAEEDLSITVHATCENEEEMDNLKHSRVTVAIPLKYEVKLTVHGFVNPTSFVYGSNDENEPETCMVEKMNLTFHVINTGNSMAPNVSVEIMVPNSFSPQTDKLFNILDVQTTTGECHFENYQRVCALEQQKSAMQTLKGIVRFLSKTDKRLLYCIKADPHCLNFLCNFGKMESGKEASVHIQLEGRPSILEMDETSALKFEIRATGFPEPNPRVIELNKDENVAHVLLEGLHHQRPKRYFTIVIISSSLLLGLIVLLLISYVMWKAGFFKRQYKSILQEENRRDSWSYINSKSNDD
T1 sequence (P26010 whole entry): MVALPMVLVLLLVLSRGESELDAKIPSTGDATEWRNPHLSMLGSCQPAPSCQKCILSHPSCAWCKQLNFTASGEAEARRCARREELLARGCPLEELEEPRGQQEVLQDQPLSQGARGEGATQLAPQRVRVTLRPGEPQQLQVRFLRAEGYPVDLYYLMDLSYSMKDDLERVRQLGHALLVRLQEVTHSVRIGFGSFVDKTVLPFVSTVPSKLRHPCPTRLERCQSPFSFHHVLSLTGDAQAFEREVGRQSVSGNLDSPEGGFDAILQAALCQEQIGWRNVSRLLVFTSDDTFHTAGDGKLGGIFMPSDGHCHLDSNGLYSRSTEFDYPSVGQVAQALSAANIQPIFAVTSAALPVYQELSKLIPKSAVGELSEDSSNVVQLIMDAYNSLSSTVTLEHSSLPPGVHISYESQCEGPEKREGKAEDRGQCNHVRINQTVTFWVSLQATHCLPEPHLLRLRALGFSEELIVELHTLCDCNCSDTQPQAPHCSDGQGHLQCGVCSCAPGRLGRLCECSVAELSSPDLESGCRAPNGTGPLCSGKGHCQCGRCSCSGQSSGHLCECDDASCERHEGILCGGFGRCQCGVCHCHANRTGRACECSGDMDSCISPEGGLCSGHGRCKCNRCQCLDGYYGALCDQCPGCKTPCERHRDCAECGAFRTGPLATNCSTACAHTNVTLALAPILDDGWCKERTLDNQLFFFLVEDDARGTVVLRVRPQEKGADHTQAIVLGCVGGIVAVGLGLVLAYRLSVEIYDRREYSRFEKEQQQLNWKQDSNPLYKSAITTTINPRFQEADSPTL
Nature of the data set: Inhibition of [125I]VCAM-Ig binding to Alpha4-beta7 integrin of RPMI-8866 cells at […] (inactive).
Details: not given
The format is cell-based.
Take `C[C@@]1(C(=O)N[C@@H](Cc2cccc(OC(=O)N3CCCC3)c2)C(=O)O)CCCN1S(=O)(=O)c1cc(Cl)cc(Cl)c1`: the IC50 result is listed as “Not Active”.

In the next data set the target is T1, Integrin alpha-4/beta-7. Nature of the data set: Alpha4-beta7 integrin binding affinity was determined in duplicate by a radioligand binding assay using [125I]-VCAM-Ig and a suspension of RPMI-8866 cells (a human B cell line alpha-4-beta-1-beta-7+). Format: cell-based.
Details: not given
For `CC(C)N(C(=O)Oc1ccc(C[C@H](NC(=O)[C@]2(C)CCCN2S(=O)(=O)c2cc(Cl)cc(Cl)c2)C(=O)O)cc1)C(C)C`, the IC50 is 62.4 nM.

`O=C(O)[C@H](Cc1ccc(OCc2ccccc2)cc1)NC(=O)[C@@H]1CCCN1S(=O)(=O)c1cc(Cl)cc(Cl)c1`: the IC50 was found to be 849 nM.

`CCN(CC)C(=O)Oc1ccc(C[C@H](NC(=O)[C@]2(C)CCCN2S(=O)(=O)c2cc(Cl)cc(Cl)c2)C(=O)O)cc1` displayed a half-inhibitory concentration (IC50) of 29.8 nM.

Compound `C[C@@]1(C(=O)N[C@@H](Cc2ccc(OC(=O)N3CCOCC3)cc2)C(=O)O)CCCN1S(=O)(=O)c1cc(Cl)cc(Cl)c1` had a half-maximal inhibitory concentration (IC50) of 3.51 nM.

In turn, `CN(C(=O)Oc1ccc(C[C@H](NC(=O)[C@]2(C)CCCN2S(=O)(=O)c2cc(Cl)cc(Cl)c2)C(=O)O)cc1)c1ccccc1` yielded a half-inhibitory concentration (IC50) of 12.3 nM.

`CC(C)(C)OC(=O)COc1ccc(C[C@H](NC(=O)[C@@H]2CCCN2S(=O)(=O)c2cc(Cl)cc(Cl)c2)C(=O)O)cc1`: the 50% inhibitory concentration (IC50) came to 211 nM.

With `N#CCOc1ccc(C[C@H](NC(=O)[C@@H]2CCCN2S(=O)(=O)c2cc(Cl)cc(Cl)c2)C(=O)O)cc1`, the IC50 was 246 nM.

`O=C(O)[C@H](Cc1ccc(OC(=O)N2CCCC2)cc1)NC(=O)[C@@H]1CCCN1S(=O)(=O)c1cc(Cl)cc(Cl)c1` had an IC50 of 1.92 nM.

Take `C[C@@]1(C(=O)N[C@@H](Cc2ccc(OC(=O)N3CCCC3)cc2)C(=O)O)CCCN1S(=O)(=O)c1cc(Cl)cc(Cl)c1`: the IC50 turned out to be 5.26 nM.

The compound `CC(=O)COc1ccc(C[C@H](NC(=O)[C@@H]2CCCN2S(=O)(=O)c2cc(Cl)cc(Cl)c2)C(=O)O)cc1` came in with a half-maximal inhibitory concentration (IC50) of 51.4 nM.

As for `CS(=O)(=O)N1CCC[C@H]1C(=O)N[C@@H](Cc1ccc(OC(=O)N2CCCC2)cc1)C(=O)O` (Ms-Pro-Tyr([CO-Pyrrolidide])-OH), the half-inhibitory concentration (IC50) worked out at 4.4 nM.

System in a further data set: not listed separately
Briefly: Tested for plasma half life period in rat (0-8 hr). Format: ADME, organism-based.
Details: not given
Broadly, the half-life is the time needed for the level to fall by half in the phase considered. With `CN(C(=O)Oc1ccc(C[C@H](NC(=O)[C@]2(C)CCCN2S(=O)(=O)c2cc(Cl)cc(Cl)c2)C(=O)O)cc1)c1ccccc1`, the half-life was 12 min.

A further data set addresses T1, Integrin alpha-4/beta-7. Nature of the data set: Inhibition of [125I]VCAM-Ig binding to Alpha4-beta7 integrin of RPMI-8866 cells. The format is cell-based.
Details: not given
As to `CC(C)(C)Oc1ccc(C[C@H](NC(=O)[C@@H]2CCCN2S(=O)(=O)c2cc(Cl)cc(Cl)c2)C(=O)O)cc1`, the IC50 is 116 nM.

In the next data set the test system is Rattus norvegicus. Briefly: Plasma clearance value at intravenous dose of 1 mg/kg (2 mg/kg po (cassette dosing)) in Dawley rat. Format: ADME, organism-based. The arrangement: dose 1 mg/kg. The settings on record: in vivo.
`C[C@@]1(C(=O)N[C@@H](Cc2ccc(OC(=O)N3CCOCC3)cc2)C(=O)O)CCCN1S(=O)(=O)c1cc(Cl)cc(Cl)c1` displayed a Clp of 50 mL/min/kg.

Consider `CN(C(=O)Oc1ccc(C[C@H](NC(=O)[C@]2(C)CCCN2S(=O)(=O)c2cc(Cl)cc(Cl)c2)C(=O)O)cc1)c1ccccc1`, for which the Clp turned out to be 38 mL/min/kg.

In another data set the test system is Rattus norvegicus. Nature of the data set: Plasma clearance value at intravenous dose of 1 mg/kg (2 mg/kg po (cassette dosing) in Dawley rat. The format is ADME, organism-based. The arrangement: dose 1 mg/kg. The settings on record: in vivo.
In the case of `C[C@@]1(C(=O)N[C@@H](Cc2ccc(OC(=O)N3CCCC3)cc2)C(=O)O)CCCN1S(=O)(=O)c1cc(Cl)cc(Cl)c1`, the Clp was found to be 27 mL/min/kg.

The record behind these values is ChEMBL document CHEMBL1135368, “The discovery of small molecule carbamates as potent dual alpha(4)beta(1)/alpha(4)beta(7) integrin antagonists” (Bioorg Med Chem Lett, 2002).
